Measurements published in PMC4552634, “A New Set of Chemical Starting Points with Plasmodium falciparum Transmission-Blocking Potential for Antimalarial Drug Discovery” (PLoS ONE, 2015).
Like-named read-outs stand apart in the source and are kept apart here.

Key:
[1] = tested on: P. falciparum stage V gametocytes; assay: Gametocytocidal ATP bioluminescence assay (single point 5 μM and 1 μM, dose-response); assay type: cell-based, Plasmodium falciparum; conditions: for Ratio IC50 HepG2/IC50 P. falciparum: IC50 HepG2 divided by IC50 P. falciparum gametocytes; for % Inhibition: 5 μM single concentration, 48 h, decrease of ATP level (S1 Table)
Protocol: Purified stage IV-V gametocytes were obtained as previously described [10]. Single point ATP bioluminescence assay and dose–response of positive hits was determined in accordance with the previously published protocol [10].

[2] = Cytotoxicity in HepG2 cells (intracellular ATP, ATPlite, 48 h); assay type: cell-based, human; conditions: human, HepG2 cells, IC50 per ratio column head, unit inferred; for IC50 at 48 h: read-out: Cytotoxicity in HepG2
Protocol: (§1) Cells were grown and maintained in EMEM (Sigma-Aldrich) supplemented with 2mM L-glutamine (Sigma-Aldrich) and 10% fetal calf serum (Perbio). […] Passages were routinely made upon reaching 80–90% confluence. For cytotoxicity experiments, cells were seeded onto 96-well clear bottom black plates coated with type I collagen (Biocoat, Becton Dickinson) at a cell density of 20,000 cells/well.
(§2) To determine cytotoxic effects, represented by the Tox50 value (the concentration of drug that reduces cell viability by 50%), cells were exposed to serial dilutions of compounds for 48 h at 37°C. The assay medium was as previously described, but supplemented with 5% fetal calf serum instead of 10%. […] In the presence of ATP, luminescence is emitted as the reaction described earlier for the BacTiter-Glo kit. Percentages of inhibition were calculated relative to vehicle control wells.

[3] = tested on: P. falciparum asexual stages; conditions: asexual stages; TCAMS data; read-out: IC50 asexual; cited from earlier work
[4] = tested on: HepG2 cells; assay: Cytotoxicity in HepG2 cells (intracellular ATP, ATPlite, 48 h); assay type: cell-based, human; conditions: HepG2 cells; IC50 per ratio column head; unit inferred
Protocol: as §1, §2

[5] = tested on: P. falciparum stage V gametocytes; assay: microbe, parasite or virus in culture; set-up: BacTiter-Glo ATP luminescence viability of purified stage V gametocytes in 384-well plates, per cent inhibition versus DMSO; conditions: Plasmodium falciparum, 48 h, read-out: % Inhibition
[6] = Plasmodium falciparum, P. falciparum gametocytes, average, read-out: IC50 Pf Gametocytes average, IC50 (µM) average
[7] = sexual stages (gametocytes), dose-response, read-out: IC50 sexual
[8] = P. falciparum gametocytes, average, read-out: IC50 Pf Gametocytes average, IC50 (µM) average

COc1ccc(CCNc2nc(NCc3ccccc3)c3cc(OC)c(OC)cc3n2)cc1OC [TCMDC-132017]
Ratio IC50 HepG2/IC50 P. falciparum [1]: 0.818 | IC50 [1, 6]: 5.6 µM | IC50 at 48 h [2]: 4580 nM | IC50 [3]: 326 nM

Cl.c1ccc2c(Nc3ccc(Cc4ccc(Nc5c6ccccc6nc6ccccc56)cc4)cc3)c3ccccc3nc2c1 [TCMDC-137354]
Ratio IC50 HepG2/IC50 P. falciparum [1]: 2 | IC50 [1, 6]: 2.3 µM | IC50 at 48 h [2]: 4490 nM | IC50 [3]: 162 nM

CC(C)(C)c1ccc(CN2CCC(CNC(=O)c3cc(-c4ccccc4F)cs3)C2)cc1 (centres unmarked) [TCMDC-134443]
Ratio IC50 HepG2/IC50 P. falciparum [1]: 22 | IC50 [1, 6]: 0.34 µM | IC50 at 48 h [2]: 7400 nM | IC50 [3]: 564 nM

COc1cc(NCCCNCc2cn(Cc3cc(Br)cc(Br)c3)c3ccccc23)nc2ccccc12 [TCMDC-140677]
Ratio IC50 HepG2/IC50 P. falciparum [1]: 10 | IC50 [1, 6]: 0.59 µM | IC50 at 48 h [2]: 6130 nM | IC50 [3]: 185 nM

CC(C)(C)c1ccc(CN2CCC(CNC(=O)c3cc(-c4ccccc4C(F)(F)F)cs3)C2)cc1 (centres unmarked) [TCMDC-134441]
Ratio IC50 HepG2/IC50 P. falciparum [1]: 21 | IC50 [1, 6]: 0.31 µM | IC50 [1, 7]: 0.305 µM | IC50 at 48 h [2]: 6400 nM | IC50 [3]: 1240 nM

Nc1c(I)cc(C(=O)Nc2ccc3nc4c(c(N)c3c2)CCCC4)cc1I [TCMDC-142289]
Ratio IC50 HepG2/IC50 P. falciparum [1]: 20 | IC50 [1, 8]: 0.41 µM | IC50 [4]: 8030 nM | IC50 [3]: 143 nM | inhibition at 5 µM [5]: 108%

c1ccc(CN2CCN(CCCCNc3c4ccccc4nc4ccccc34)CC2)cc1 [TCMDC-138009]
Ratio IC50 HepG2/IC50 P. falciparum [1]: 12 | IC50 [1, 6]: 0.79 µM | IC50 [1, 7]: 0.795 µM | IC50 at 48 h [2]: 9920 nM | IC50 [3]: 117 nM

COc1cc2nc(NCCCN3CCCCC3)nc(NCc3ccccc3)c2cc1OC [TCMDC-132012]
Ratio IC50 HepG2/IC50 P. falciparum [1]: 30 | IC50 [1, 6]: 0.3 µM | IC50 [1, 7]: 0.297 µM | IC50 at 48 h [2]: 8940 nM | IC50 [3]: 998 nM

COc1ccc2nc3cc(Cl)ccc3c(NCCCCN3CCNCC3)c2c1 [TCMDC-137578]
Ratio IC50 HepG2/IC50 P. falciparum [1]: 7.58 | IC50 [1, 6]: 0.66 µM | IC50 at 48 h [2]: 5000 nM | IC50 [3]: 183 nM

Nc1cc(/C=C/c2ccc([N+](=O)[O-])s2)nc2ccccc12 [TCMDC-142296]
Ratio IC50 HepG2/IC50 P. falciparum [1]: 13 | IC50 [1, 8]: 0.6 µM | IC50 [1, 7]: 0.595 µM | IC50 [4]: 7600 nM | IC50 [3]: 760 nM | inhibition at 5 µM [5]: 111%

Fc1ccc2c(NN=Cc3ccccc3)ccnc2c1 [TCMDC-142100]
% Inhibition ([1]; P. falciparum gametocytes): 16% | inhibition at 5 µM [5]: 16.3%

N=C(NCCCCC1CCCCC1)c1cccc(C(=N)NCCCCC2CCCCC2)n1 [TCMDC-137452]
Ratio IC50 HepG2/IC50 P. falciparum [1]: 7 | IC50 [1, 6]: 0.22 µM | IC50 at 48 h [2]: 1600 nM | IC50 [3]: 395 nM

CC(C)(C)c1ccc(CN2CCC(CNC(=O)c3cc(-c4ccccc4Cl)cs3)C2)cc1 (centres unmarked) [TCMDC-134445]
Ratio IC50 HepG2/IC50 P. falciparum [1]: 12 | IC50 [1, 6]: 0.69 µM | IC50 at 48 h [2]: 8300 nM | IC50 [3]: 856 nM

CC(CNC(=N)c1cccc(C(=N)NCC(C)Oc2cccc(C3CCCCC3)c2)n1)Oc1cccc(C2CCCCC2)c1.Cl (centres unmarked) [TCMDC-137455]
Ratio IC50 HepG2/IC50 P. falciparum [1]: 15 | IC50 [1, 6]: 0.24 µM | IC50 at 48 h [2]: 3530 nM | IC50 [3]: 917 nM

O=[N+]([O-])c1cccc(/C=N/Nc2ccnc3cc(F)ccc23)c1 [TCMDC-142098]
% Inhibition ([1]; P. falciparum gametocytes): 42% | inhibition at 5 µM [5]: 42.1%

Fc1ccc2c(NN=Cc3ccc(Cl)cc3)ccnc2c1 [TCMDC-142097]
% Inhibition ([1]; P. falciparum gametocytes): 61% | inhibition at 5 µM [5]: 61.1%

CC(C)c1ccc(CN2CCC(CNC(=O)c3cc(-c4cccc(F)c4)cs3)C2)cc1 (centres unmarked) [TCMDC-134437]
Ratio IC50 HepG2/IC50 P. falciparum [1]: 12 | IC50 [1, 6]: 0.45 µM | IC50 [1, 7]: 0.455 µM | IC50 at 48 h [2]: 5300 nM | IC50 [3]: 1660 nM

Cl.c1ccc2c(NCCCCCCCCCNc3c4ccccc4nc4ccccc34)c3ccccc3nc2c1 [TCMDC-124286]
Ratio IC50 HepG2/IC50 P. falciparum [1]: 4 | IC50 ([1]; Plasmodium falciparum, read-out: IC50 Pf Gametocytes average, IC50 (µM) average): 1.5 µM | IC50 [1, 7]: 1.5 µM | IC50 [2]: 6100 nM | IC50 [3]: 298 nM

COc1ccc2c(NN=CC=Cc3ccccc3)cc(C)nc2c1 [TCMDC-142096]
% Inhibition ([1]; P. falciparum gametocytes): 34% | inhibition at 5 µM [5]: 34%

CC(C)(C)c1ccc(CN2CCC(CNC(=O)c3cc(-c4cccc(C(F)(F)F)c4)cs3)C2)cc1 (centres unmarked) [TCMDC-134442]
Ratio IC50 HepG2/IC50 P. falciparum [1]: 12 | IC50 [1, 6]: 0.42 µM | IC50 at 48 h [2]: 4900 nM | IC50 [3]: 1030 nM

Clc1ccc(C=NNc2ccnc3ccccc23)cc1 [TCMDC-142099]
% Inhibition ([1]; P. falciparum gametocytes): -69% | inhibition at 5 µM [5]: -69.1%

C=C[C@H]1CN(CCCCCCC)CC[C@H]1CCNc1ccnc2ccc(OC)cc12 [TCMDC-139204]
Ratio IC50 HepG2/IC50 P. falciparum [1]: 3 | IC50 [1, 6]: 1.08 µM | IC50 at 48 h [2]: 3400 nM | IC50 [3]: 62 nM

CCOc1ccc2c(NN=Cc3ccccc3F)cc(C)nc2c1 [TCMDC-142193]
inhibition at 5 µM [5]: 98.2%

COc1ccc2ccccc2c1C=NNc1ccnc2ccc(F)cc12 [TCMDC-142237]
inhibition at 5 µM [5]: -11.1%

CC(C)(C)c1cc([N+](=O)[O-])cc(C(=O)Nc2ccccc2C(F)(F)F)c1O [TCMDC-142293]
inhibition at 5 µM [5]: -4.47%

Cc1[nH]cnc1CSCCNC(N)=NCCCCCCCCN=C(N)NCCSCc1nc[nH]c1C [TCMDC-142301]
inhibition at 5 µM [5]: -5.19%

COc1ccc2c(NN=Cc3cccc(Cl)c3)ccnc2c1 [TCMDC-142128]
inhibition at 5 µM [5]: 98.7%

COc1cccc(-c2csc(C(=O)NCC3CCN(Cc4ccc(C(C)(C)C)cc4)C3)c2)c1 (centres unmarked) [TCMDC-134447]
Ratio IC50 HepG2/IC50 P. falciparum [1]: 41 | IC50 [1, 6]: 0.23 µM | IC50 at 48 h [2]: 9500 nM | IC50 [3]: 1180 nM

Oc1ccc(Br)cc1-c1nc2ccc(Cl)cc2nc1-c1cc(Br)ccc1O [TCMDC-142219]
inhibition at 5 µM [5]: 82.4%

COc1ccc2nccc(NN=Cc3ccccc3)c2c1 [TCMDC-142110]
inhibition at 5 µM [5]: 31.2%

Cc1cc(NN=Cc2cccc(Cl)c2)c2cc(F)ccc2n1 [TCMDC-142164]
inhibition at 5 µM [5]: -59.6%
